Measurements from US9815864B2, “Substituted nucleosides, nucleotides and analogs thereof” (Alios BioPharma, Inc., priority 2013, dated 2017).
Read-outs that look alike come from different tables or passages of the source.

Key:
[1] = system: NV genome in HG23 cells; assay: Norovirus replicon assay (HG23 cells, NV genome by qRT-PCR); format: cell-based, genogroup 1 norovirus
[2] = system: Murine norovirus (MNV-1); assay: Norovirus MNV-1 antiviral assay (CPE reduction, CellTiter-Glo, RAW 264.7 cells); format: cell-based
[3] = target: Norovirus polymerase (NoVpol, genotype II) (Lordsdale virus, UniProt P54634); assay: biochemical; details: 50 nM recombinant enzyme, 2.5 hours at 30° C.; read-out: IC50
Chain of Norovirus polymerase (NoVpol, genotype II) (P54634 1190-1699 limits assumed): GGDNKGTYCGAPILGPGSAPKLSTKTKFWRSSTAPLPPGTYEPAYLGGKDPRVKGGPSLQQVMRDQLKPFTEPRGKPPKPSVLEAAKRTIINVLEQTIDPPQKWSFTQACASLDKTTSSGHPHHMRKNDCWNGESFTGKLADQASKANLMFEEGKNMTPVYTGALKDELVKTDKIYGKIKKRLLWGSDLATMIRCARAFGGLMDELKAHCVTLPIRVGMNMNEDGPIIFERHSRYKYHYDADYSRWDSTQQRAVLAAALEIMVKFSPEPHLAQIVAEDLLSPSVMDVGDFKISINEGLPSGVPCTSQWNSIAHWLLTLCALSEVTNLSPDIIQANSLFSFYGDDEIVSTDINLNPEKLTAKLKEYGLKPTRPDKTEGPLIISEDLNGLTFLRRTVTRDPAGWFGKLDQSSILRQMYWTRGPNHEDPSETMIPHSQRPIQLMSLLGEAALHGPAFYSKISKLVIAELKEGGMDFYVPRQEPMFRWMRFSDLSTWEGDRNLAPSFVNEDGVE

[4] = HG23 cells, reduction of NV genome vs mock-medium at 48 h, read-out: EC50
[5] = RAW 264.7 cells infected with MNV-1 (MOI of 0.001), 3 days, read-out: EC50
[6] = Norovirus, HG23 cells, reduction of NV genome vs mock-medium at 48 h, read-out: EC50
[7] = RAW264.7, 72 h, RAW 264.7 cells infected with MNV-1 (MOI of 0.001), 3 days, read-out: EC50

Row | IC50 [3] [µM] | Structure (SMILES) | EC50 [1, 6] [µM] | EC50 [2, 7] [µM] | further results
1 | – | C#C[C@]1(O)[C@H](n2cnc3c(OCC)nc(N)nc32)O[C@](F)(CO[P@@](=O)(N[C@@H](C)C(=O)OC2CCCCC2)Oc2ccccc2)[C@H]1O [Compound 143a] | – | – | EC50 [1, 4]: 1 to 10 µM
2 | – | CCOc1nc(N)nc2c1ncn2[C@@H]1O[C@]2(F)CO[P@](=O)(OC(C)C)O[C@H]2[C@@]1(C)F [Compound 149a] | – | – | EC50 [1, 4]: 1 to 10 µM; EC50 [2, 5]: 10 to 100 µM
3 | – | CCOc1nc(N)nc2c1ncn2[C@@H]1O[C@](F)(CO[P@](=O)(N[C@@H](C)C(=O)OC2CCCCC2)Oc2ccccc2)[C@@H](O)[C@@]1(C)F [Compound 140a] | – | – | EC50 ([1]; Norovirus, HG23, 48 h): < 1 µM; EC50 ([2]; MNV-1, RAW264.7, 72 h): 1 to 10 µM
4 | – | CCOc1nc(N)nc2c1ncn2[C@@H]1O[C@](F)(CO[P@@](=O)(N[C@@H](C)C(=O)OC2CCCCC2)Oc2ccccc2)[C@@H](O)[C@@]1(C)F [Compound 141a] | – | – | EC50 [1, 4]: 1 to 10 µM; EC50 [2, 5]: 1 to 10 µM
5 | – | CCOc1nc(N)nc2c1ncn2[C@@H]1O[C@](F)(COP(=O)(OCOC(=O)OC(C)C)OCOC(=O)OC(C)C)[C@@H](O)[C@@]1(C)F [Compound 188a] | < 1 | 1 to 10 | –
6 | – | [N-]=[N+]=N[C@]1(CO)O[C@@H](n2ccc(N)nc2=O)[C@@H](O)[C@@H]1O [Compound 266a] | 1 to 10 | – | –
7 | – | [N-]=[N+]=NC[C@]1(CO)O[C@@H](n2ccc(N)nc2=O)[C@H](F)[C@@H]1O [Compound 113a] | 1 to 10 | 10 to 100 | –
8 | – | C#C[C@@]1(O)[C@H](O)[C@@H](CO)O[C@H]1n1ccc2c(N)ncnc21 [Compound 291a] | < 1 | < 1 | –
9 | – | CCOc1nc(N)nc2c1ncn2[C@@H]1O[C@]2(F)CO[P@](=O)(OC(C)C)O[C@H]2[C@@]1(C)O [Compound 144a] | 1 to 10 | 10 to 100 | –
10 | – | C#C[C@]1(O)[C@H](n2ccc(=O)[nH]c2=O)O[C@](F)(COP(=O)(OCOC(=O)OC(C)C)OCOC(=O)OC(C)C)[C@H]1O [Compound 208a] | < 1 | 10 to 100 | –
11 | – | C#C[C@]1(F)[C@H](n2cnc3c(OCC)nc(N)nc32)O[C@](F)(COP(=O)(N[C@@H](C)C(=O)OC2CCCCC2)Oc2ccccc2)[C@H]1O (some centres unmarked) [Compound 147a] | – | – | EC50 ([1]; Norovirus, HG23, 48 h): < 1 µM
12 | – | C#C[C@]1(O)[C@H](n2ccc(=O)[nH]c2=O)O[C@](F)(COP(=O)(N[C@@H](C)C(=O)OC2CCCCC2)Oc2ccccc2)[C@H]1O (some centres unmarked) [Compound 131a] | – | – | EC50 ([1]; Norovirus, HG23, 48 h): < 1 µM; EC50 ([2]; MNV-1, RAW264.7, 72 h): 10 to 100 µM
13 | – | CCOc1nc(N)nc2c1ncn2[C@@H]1O[C@](CF)(COP(=O)(N[C@@H](C)C(=O)OC2CCCCC2)Oc2ccccc2)[C@@H](O)[C@@]1(C)O (some centres unmarked) [Compound 153a] | – | – | EC50 ([1]; Norovirus, HG23, 48 h): < 1 µM
14 | – | C#C[C@@]1(O)[C@H](O)[C@](CO)(CCl)O[C@H]1n1ccc(=O)[nH]c1=O [Compound 344a] | 10 to 100 | – | –
15 | – | CCOc1nc(N)nc2c1ncn2[C@@H]1O[C@]2(F)CO[P@@](=O)(OC(C)C)O[C@H]2[C@@]1(C)O [Compound 145a] | – | 10 to 100 | –
16 | – | C#C[C@@]1(O)[C@H](O)[C@@](CF)(COP(=O)(OCOC(=O)OC(C)C)OCOC(=O)OC(C)C)O[C@H]1n1cnc2c(N)ncnc21 [Compound 168a] | < 1 | 10 to 100 | –
17 | < 1 | C#C[C@]1(O)[C@H](n2cnc3c(=O)[nH]c(N)nc32)O[C@](F)(CO)[C@H]1F [Compound 146a] | – | 10 to 100 | –
18 | – | C[C@@]1(O)[C@H](O)[C@](CO)(CF)O[C@H]1n1ccc(N)nc1=O [Compound 338a] | 10 to 100 | – | –
19 | – | CC(C)OC(=O)OCOP(=O)(OCOC(=O)OC(C)C)OC[C@@]1(CF)O[C@@H](n2ccc(=O)[nH]c2=O)[C@](C)(O)[C@@H]1O [Compound 156a] | < 1 | 1 to 10 | –
20 | – | [N-]=[N+]=N[C@]1(CO)O[C@@H](n2ccc(N)nc2=O)[C@H](O)[C@@H]1O [Compound 381a] | 10 to 100 | – | –
21 | – | Nc1ccn([C@@H]2O[C@@](CO)(CF)[C@@H](O)C2(F)F)c(=O)n1 [Compound 179a] | 1 to 10 | < 1 | –
22 | – | Nc1ccn([C@@H]2O[C@@](CO)(CCl)[C@@H](O)[C@H]2O)c(=O)n1 [Compound 271a] | 10 to 100 | 10 to 100 | –

Row | IC50 [3] [µM] | Structure (SMILES) | EC50 [1, 6] [µM] | EC50 [2, 7] [µM] | further results
23 | – | [N-]=[N+]=N[C@]1(CO)O[C@@H](n2ccc(N)nc2=O)C(F)(F)[C@@H]1O [Compound 380a] | 1 to 10 | – | –
24 | – | CCOc1nc(N)nc2c1ncn2[C@@H]1O[C@](F)(COP(=O)(N[C@@H](C)C(=O)OC2CCCCC2)Oc2ccccc2)[C@@H](O)[C@@]1(C)O (some centres unmarked) [Compound 128a] | – | – | EC50 ([1]; Norovirus, HG23, 48 h): 1 to 10 µM
25 | – | CCOc1nc(N)nc2c1ncn2[C@@H]1O[C@](F)(COP(=O)(N[C@@H](C)C(=O)OC2CCCCC2)Oc2ccccc2)[C@@H](F)[C@@]1(C)O (some centres unmarked) [Compound 134a] | – | – | EC50 ([1]; Norovirus, HG23, 48 h): 1 to 10 µM
26 | – | CCOc1nc(N)nc2c1ncn2[C@@H]1O[C@](F)(COP(=O)(OCOC(=O)OC(C)C)OCOC(=O)OC(C)C)[C@@H](O)[C@@]1(C)O [Compound 209a] | < 1 | 1 to 10 | –
27 | < 1 | N#C[C@@]1(n2ccc(=O)[nH]c2=O)O[C@](CF)(COP(=O)(O)OP(=O)(O)OP(=O)(O)O)[C@@H](O)[C@H]1O [Compound 331a] | – | – | –
28 | 1 to 10 | Cc1cn([C@@H]2O[C@](CCl)(COP(=O)(O)OP(=O)(O)OP(=O)(O)O)[C@@H](O)[C@H]2F)c(=O)nc1N [Compound 97d] | – | – | –
29 | 1 to 10 | C#C[C@]1(F)[C@H](n2ccc(=O)[nH]c2=O)O[C@](F)(COP(=O)(O)OP(=O)(O)OP(=O)(O)O)[C@H]1O [Compound 313a] | – | – | –
30 | – | N#C[C@@]1(n2ccc(N)nc2=O)O[C@@](CO)(CF)[C@@H](O)[C@H]1O [Compound 376a] | – | – | EC50 [2, 5]: 10 to 100 µM
31 | 1 to 10 | C=C[C@]1(O)[C@H](n2ccc(=O)[nH]c2=O)O[C@](F)(COP(=O)(O)OP(=O)(O)OP(=O)(O)O)[C@H]1O [Compound 330a] | – | – | –
32 | < 1 | C=C[C@]1(COP(=O)(O)OP(=O)(O)OP(=O)(O)O)O[C@@H](n2cnc3c(=O)[nH]c(N)nc32)[C@H](F)[C@@H]1O [Compound 34a] | – | – | –
33 | 1 to 10 | [N-]=[N+]=NC[C@]1(COP(=O)(O)OP(=O)(O)OP(=O)(O)O)O[C@@H](n2cnc3c(N)ncnc32)[C@H](F)[C@@H]1O [Compound 212a] | – | – | –
34 | 10 to 100 | C[C@]1(F)[C@H](n2ccc(=O)[nH]c2=O)O[C@](F)(COP(=O)(O)OP(=O)(O)OP(=O)(O)O)[C@H]1O [Compound 242a] | – | – | –
35 | 1 to 10 | Nc1nc2c(ncn2[C@@H]2O[C@](CCl)(COP(=O)(O)OP(=O)(O)OP(=O)(O)O)[C@@H](O)[C@H]2F)c(=O)[nH]1 [Compound 116a] | – | – | –
36 | – | Nc1ccn([C@@H]2O[C@@](CO)(CF)[C@@H](O)[C@H]2F)c(=O)n1 [Compound 23a] | 10 to 100 | 1 to 10 | –
37 | < 1 | [N-]=[N+]=N[C@]1(COP(=O)(O)OP(=O)(O)OP(=O)(O)O)O[C@@H](n2ccc(=O)[nH]c2=O)[C@H](O)[C@@H]1O [Compound 264a] | – | – | –
38 | < 1 | C#C[C@]1(F)[C@H](n2cnc3c(=O)[nH]c(N)nc32)O[C@](F)(COP(=O)(O)OP(=O)(O)OP(=O)(O)O)[C@H]1O [Compound 237a] | – | – | –
39 | – | C#C[C@]1(F)[C@H](n2cnc3c(OCC)nc(N)nc32)O[C@](F)(COP(=O)(N[C@@H](C)C(=O)OC2CCCCC2)Oc2ccccc2)[C@H]1O (some centres unmarked) [Compound 148a] | – | – | EC50 ([1]; HG23 cells, reduction of NV genome vs mock-medium at 48 h): < 1 µM
40 | < 1 | C[C@@]1(O)[C@H](O)[C@@](CF)(COP(=O)(O)OP(=O)(O)OP(=O)(O)O)O[C@H]1n1ccc2c(N)ncnc21 [Compound 351a] | – | – | –
41 | 1 to 10 | C=C[C@]1(COP(=O)(O)OP(=O)(O)OP(=O)(O)O)O[C@@H](n2ccc(=O)[nH]c2=O)C(F)(F)[C@@H]1O [Compound 221a] | – | – | –
42 | – | C#C[C@]1(O)[C@H](n2cnc3c(OCC)nc(N)nc32)O[C@](F)(CO[P@](=O)(N[C@@H](C)C(=O)OC2CCCCC2)Oc2ccccc2)[C@H]1O [Compound 142a] | – | – | EC50 [1, 4]: 1 to 10 µM
43 | < 1 | [N-]=[N+]=N[C@]1(COP(=O)(O)OP(=O)(O)OP(=O)(O)O)O[C@@H](n2cnc3c(=O)[nH]c(N)nc32)[C@H](F)[C@@H]1O [Compound 269a] | – | – | –
